Data on 4 compounds can be found in PubChem BioAssay AID1259407 (Chemical Carcinogenesis Research Information System (CCRIS), 2018).

Calls of active or inactive are those of the source. The rule behind the calls is not given here.

The data set concerns CCRIS mutagenicity, Ames/micronucleus/aberration tests. In words: CCRIS mutagenicity studies.
Where [1] appears, read: Test System: AMES SALMONELLA TYPHIMURIUM, Strain/Indicator: TA98, Metabolic Activation: NONE, Method: PREINCUBATION
Setting [2] is: Test System: AMES SALMONELLA TYPHIMURIUM, Strain/Indicator: TA100, Metabolic Activation: NONE, Method: PREINCUBATION
Where [3] appears, read: Test System: AMES SALMONELLA TYPHIMURIUM, Strain/Indicator: TA100, Metabolic Activation: NONE, Method: STANDARD PLATE.

On to `COc1ccc(OC)c(N=Nc2c(O)ccc3ccccc23)c1`, for which the mutagenic call is “active; positive” (Test System: AMES SALMONELLA TYPHIMURIUM, Strain/Indicator: TA98, Metabolic Activation: HAMSTER, LIVER, S-9, AROCLOR 1254 (30%), Method: PREINCUBATION); “inactive; negative” under setting [1]; “active; positive” (Test System: AMES SALMONELLA TYPHIMURIUM, Strain/Indicator: TA100, Metabolic Activation: HAMSTER, LIVER, S-9, AROCLOR 1254 (30%), Method: PREINCUBATION); “inactive; negative” under setting [2]; “active; positive” (Test System: AMES SALMONELLA TYPHIMURIUM, Strain/Indicator: TA100, Metabolic Activation: RAT, LIVER, S-9, AROCLOR 1254 (30%), Method: PREINCUBATION).
On to `O=CNc1nc(-c2ccc([N+](=O)[O-])o2)cs1`, for which the mutagenic call under setting [3] is “active; positive”; the mutagenic call (Test System: AMES SALMONELLA TYPHIMURIUM, Strain/Indicator: TA100, Metabolic Activation: RAT, LIVER, S-9, KC500 OR PHENOBARBITAL, Method: LIQUID SUSPENSION) is “active; positive”; the mutagenic call (Test System: E. COLI, Strain/Indicator: WP2, Metabolic Activation: NONE, Method: SPOT) is “active; positive”; the mutagenic call (Test System: E. COLI, Strain/Indicator: WP2, Metabolic Activation: NONE, Method: STANDARD PLATE) was “active; positive”; the mutagenic call (Test System: E. COLI, Strain/Indicator: WP2 UVRA, Metabolic Activation: HAMSTER, LIVER, S-9, AROCLOR 1254, Method: STANDARD PLATE) was “active; positive”; the mutagenic call (Test System: E. COLI, Strain/Indicator: WP2 UVRA, Metabolic Activation: HAMSTER, LIVER, S-9, Method: STANDARD PLATE) is “active; positive”. Also, the mutagenic call runs as follows: (Test System: E. COLI, Strain/Indicator: WP2 UVRA, Metabolic Activation: MOUSE, LIVER, S-9, AROCLOR 1254, Method: STANDARD PLATE) “active; positive”; (Test System: E. COLI, Strain/Indicator: WP2 UVRA, Metabolic Activation: MOUSE, LIVER, S-9, Method: STANDARD PLATE) “active; positive”; (Test System: E. COLI, Strain/Indicator: WP2 UVRA, Metabolic Activation: NONE, Method: SPOT) “active; positive”; (Test System: E. COLI, Strain/Indicator: WP2 UVRA, Metabolic Activation: NONE, Method: STANDARD PLATE) “active; positive”; (Test System: E. COLI, Strain/Indicator: WP2 UVRA, Metabolic Activation: RAT, LIVER, S-9, AROCLOR 1254, Method: STANDARD PLATE) “active; positive”; (Test System: E. COLI, Strain/Indicator: WP2 UVRA, Metabolic Activation: RAT, LIVER, S-9, Method: STANDARD PLATE) “active; positive”.
As for `O=NN(CCCl)C(=O)NC1CCCCC1`, the mutagenic call is, setting by setting: (End Point: IN VITRO CHROMOSOMAL ABERRATIONS, Test System: HUMAN HCT116/3-6 CELLS, Metabolic Activation: NONE) “active; positive”; (End Point: IN VITRO CHROMOSOMAL ABERRATIONS, Test System: HUMAN HCT116 CELLS, Metabolic Activation: NONE) “active; positive”; (End Point: IN VITRO CHROMOSOMAL ABERRATIONS, Test System: HUMAN MT1 CELLS, Metabolic Activation: NONE) “active; positive”; (End Point: IN VITRO CHROMOSOMAL ABERRATIONS, Test System: HUMAN TK6 CELLS, Metabolic Activation: NONE) “active; positive”; (Test System: AMES SALMONELLA TYPHIMURIUM, Strain/Indicator: TA97, Metabolic Activation: NONE, Method: STANDARD PLATE) “inactive; negative”; (Test System: AMES SALMONELLA TYPHIMURIUM, Strain/Indicator: TA97, Metabolic Activation: RAT, LIVER, S-9, PHENOBARBITAL AND ALPHA-NAPHTHOFLAVONE, Method: STANDARD PLATE) “inactive; negative”. Moreover, the mutagenic call under setting [1] was “inactive; negative”; the mutagenic call (Test System: AMES SALMONELLA TYPHIMURIUM, Strain/Indicator: TA98, Metabolic Activation: NONE, Method: STANDARD PLATE) is “inactive; negative”; the mutagenic call (Test System: AMES SALMONELLA TYPHIMURIUM, Strain/Indicator: TA98, Metabolic Activation: RAT, LIVER, S-9, PHENOBARBITAL AND ALPHA-NAPHTHOFLAVONE, Method: STANDARD PLATE) was “inactive; negative”; the mutagenic call (Test System: AMES SALMONELLA TYPHIMURIUM, Strain/Indicator: TA98, Metabolic Activation: S-9, Method: PREINCUBATION) is “inactive; negative”; the mutagenic call under setting [2] was “active; positive”; the mutagenic call under setting [3] is “active; positive”. For the same compound, the mutagenic call reads like this: (Test System: AMES SALMONELLA TYPHIMURIUM, Strain/Indicator: TA100, Metabolic Activation: RAT, LIVER, S-9, PHENOBARBITAL AND ALPHA-NAPHTHOFLAVONE, Method: STANDARD PLATE) “active; positive”; (Test System: AMES SALMONELLA TYPHIMURIUM, Strain/Indicator: TA100, Metabolic Activation: S-9, Method: PREINCUBATION) “active; positive”; (Test System: AMES SALMONELLA TYPHIMURIUM, Strain/Indicator: TA1535, Metabolic Activation: NONE, Method: STANDARD PLATE) “active; positive”; (Test System: AMES SALMONELLA TYPHIMURIUM, Strain/Indicator: TA1535, Metabolic Activation: RAT, LIVER, S-9, PHENOBARBITAL AND ALPHA-NAPHTHOFLAVONE, Method: STANDARD PLATE) “active; positive”; (Test System: CHINESE HAMSTER V-79, Strain/Indicator: V-79/6-THIOGUANINE, Metabolic Activation: NONE, Method: STANDARD PLATE) “active; positive”.
Turning to `CC(C)(S)[C@H](N)C(=O)O`, the mutagenic call is, setting by setting: (Test System: AMES SALMONELLA TYPHIMURIUM, Strain/Indicator: TA92, Metabolic Activation: NONE, Method: STANDARD PLATE) “active; positive”; (Test System: AMES SALMONELLA TYPHIMURIUM, Strain/Indicator: TA92, Metabolic Activation: RAT, KIDNEY, S-9, Method: STANDARD PLATE) “active; positive”; (Test System: AMES SALMONELLA TYPHIMURIUM, Strain/Indicator: TA92, Metabolic Activation: RAT, LIVER, S-9, Method: STANDARD PLATE) “active; positive”; under setting [3], “active; positive”; (Test System: AMES SALMONELLA TYPHIMURIUM, Strain/Indicator: TA100, Metabolic Activation: RAT, KIDNEY, S-9, Method: STANDARD PLATE) “active; positive”; (Test System: AMES SALMONELLA TYPHIMURIUM, Strain/Indicator: TA100, Metabolic Activation: RAT, LIVER, S-9, Method: STANDARD PLATE) “active; positive”. For the same compound, the mutagenic call (Test System: AMES SALMONELLA TYPHIMURIUM, Strain/Indicator: TA102, Metabolic Activation: NONE, Method: STANDARD PLATE) is “active; positive”.
